Measurements reported in patent publication US20160038474A1, “COMPOSITIONS AND METHODS FOR THE MODULATION OF HEMOGLOBIN (S)” (GLOBAL BLOOD THERAPEUTICS, INC., priority 2013, published 2016).
Read-outs that look alike come from different tables or passages of the source.

Legend:
[1] = target: T1, HbS (Homo sapiens, UniProt P68871+P69905, E7V); experiment: 96-well oxygen dissociation assay (ODA); type: biochemical; conditions: [Hb] 3 μM; [cmp] 1 μM
[2] = target: T1, HbS; experiment: 96-well oxygen dissociation assay (ODA); type: biochemical
Description: Results: Table 4 below lists the change in oxygen affinity (Δoxy state). After two hours of passive deoxygenation, compound 12, at an equimolar concentration to Hb, increased the Hb oxygen affinity by 6-fold.

[3] = tested on: washed red blood cells; experiment: Reverse Hemox assay (OEC), washed red blood cells; type: cell-based, human; conditions: [Hb] 1 mM; [cmp] 1 mM
Procedure: (§1) Oxygen Equilibrium Curves (OEC) of whole blood before and after treatment with different concentrations of compounds 12, 22 and 23 were performed as follows using a HEMOX analyzer (TCS Scientific, New Hope, Pa.). Blood samples from homozygous sickle cell patients were obtained though the Hemoglobinopathy Center at Children's Hospital Oakland Research Institute (CHORI) with Institutional Review Board approval. The hematocrit was adjusted to 20% using autologous plasma and the blood samples were incubated for 1 hour at 37° C. in absence or presence of compounds. 100 μl of these samples were added to 5 mL of Hemox butter (30 mM TES, 130 mM NaCl, 5 mM KCl, pH=7.4) at 37° C. and then transferred to the Hemox sample chamber. The samples were saturated with oxygen by flushing with compressed air for 10 minutes. The samples were then flushed with pure nitrogen and the respective absorbances of oxy- and deoxy-Hb are recorded as a function of the solution pO2. The oxygen equilibrium data were then fitted to the Hill Model to obtain values for p50. The deoxygenation curves for both whole blood alone (control) and whole blood in the presence of the compound were collected with the TCS software.
(§2) Reverse hemox assay was performed essentially as described in Example 2, above, using either washed red blood cells or whole blood.
Results: Table 4, below, indicates the percent change in p50 (delta p50%) for each compound tested. In the washed red blood cells (RBCs), 5-HMF, compound 5, and compound 12 (1 mM compound) gave p50 of 20, 9 and 7 mm Hg, respectively, compared to the control red blood cells (delta p50=30 mm Hg). To determine the effects of plasma proteins on compound activity. OECs were measured in whole blood from sickle cell disease patients. 5-HMF, compound 5, compound 9, and compound 12 gave p50 of 27, 18, 11 and 6 mm Hg, respectively, compared to the control blood p50 of 30 mm Hg.

[4] = target: T2, whole blood from homozygous sickle cell patients, Hb(S) (Homo sapiens, UniProt P68871+P69905, E7V); experiment: Reverse Hemox assay (oxygen equilibrium curves), whole blood; type: cell-based; conditions: for Whole Blood OEC (delta p50%): [Hb] 1 mM; for Reverse Hemox delta p50% (class) / Reverse Hemox delta p50%: 1 mM compound, whole blood, hematocrit 20%; for Reverse Hemox delta p50%: 1 hour 37° C.
T2 construct: Oxygen Equilibrium Curves (OEC) of whole blood before and after treatment; from tissue; host or cells: whole blood (or washed red blood cells) of homozygous sickle cell patients
Procedure: as §1
Results: Table 3 below lists the delta p50% values where “+” indicates a delta p50% of between 0 and 29, “++” indicates a delta p50% of between 30 and 50, and “+++” indicates a delta p50% of 50 or greater.
as §2

[5] = tested on: sickle cell disease patient whole blood (ssRBCs); experiment: Viscosity assay, hypoxic sickle cell blood; type: cell-based, human; conditions: [Hb] 1.5 mM, two hours of hypoxia
Procedure: Sickle cell disease patients develop anemia as a means for the circulatory system to compensate for increase in blood viscosity caused by the non-deformable sickle cell red blood cells (ssRBCs). The effects of 5-HMF, compound 5, compound 9, or compound 12 were tested on sickle cell disease patient blood rheology to determine if these compounds decrease the viscosity of ssRBCs that have undergone hypoxia. Using blood from patients with sickle cell disease, whole blood (30% hematocrit, ˜1.5 mM Hb) was incubated with 5-HMF, compound 5, compound 9, or compound 12 during exposure to two hours of hypoxia (2.4% 02). A cone-plate viscometer was used to measure the viscosity at shear rates ranging from 60 s^−1 to 415 s^−1.

[6] = target: T3, HbS/A (Homo sapiens, UniProt P68871+P69905, E7V); experiment: R/T assay (relaxed-to-tense transition); type: biochemical; conditions: HbS/A 3 μM
T3 construct: A mixture of HbS/A was purified from blood obtained from homozygous sickle cell patients; from tissue; host or cells: blood of homozygous sickle cell patients
Procedure: This ability can be expressed as a “delta R” value (i.e., the change in the time-period of the R state after hemoglobin is treated with a compound, as compared to the period without treatment with the compound). Delta R is the % R to remaining after the compounds treatment compared with no treatment (e.g., if R % without treatment is 8% while with treatment with a target compound is 48% R at 30 μM, then % R is 40% for that compound.
A mixture of HbS/A was purified from blood obtained from homozygous sickle cell patients though the Hemoglobinopathy Center at Children's Hospital Oakland Research Institute (CHORI) with Institutional Review Board approval. HbS/A (at a final concentration of 3 μM) was incubated for 1 hr at 37° C. in presence or absence of compounds in […] potassium phosphate buffer, pH=7.4 and 30 μM 2,3 diphosphoglycerate (DPG) in 96 well plates in a final volume of 160 μl. Compounds were added at different concentrations (3 μM to 100 μM final concentrations). Plates were covered with a Mylar film. After incubation was completed the Mylar cover was removed and the plates were placed in a Spectrostar Nano plate reader previously heated at 37° C. Five minutes later, N2 (flow rate=20 L/min) was flowed through the spectrophotometer. Spectroscopic measurements (300 nm to 700 nm) were taken every 5 min for 2 hours. Data analysis was performed by using linear regression from the data retrieved for all wavelengths.

[7] = Rat pharmacokinetics and blood/plasma partitioning (Example 1); type: in vivo, Rats (Sprague-Dawley); conditions: for level of compound in blood versus plasma, overall exposure / relative proportion in blood (as compared to plasma) at peak concentration (Cmax): dosed orally; for Vd / bioavailability / clearance / blood plasma ratio: male, Sprague-Dawley; for Vd / bioavailability: in vivo; for Vd / clearance: oral 10 mg/kg or intravenous 1 mg/kg; for Vd: read-out: Vss; for bioavailability: oral 10 mg/kg, intravenous 1 mg/kg; for clearance: plasma; for blood plasma ratio: whole blood and plasma, oral, 10 mg/kg
Procedure: This experiment was established and used in order to assess the pharmacokinetic (PK) properties of the compounds.
Sample collection and data analysis: Rats (Sprague-Dawley, male, 8-12[…] weeks old) were dosed with one of three compounds corresponding to compound 12, compound 22 or compound 23. The rats received oral (10 mg/kg) or intravenous (1 mg/kg) doses of the compound. Rats were fasted overnight before the experiments and provided with food after the 2 hour sampling time point.
Blood samples were collected at different time points. Blood was anti-coagulated by 3.2% TSC (trisodium citrate) and a portion was separated into plasma fraction by centrifugation and removal of blood cells. Plasma and lysed blood samples were anal) zed for drug concentration using LC-MS/MS. PK parameters were calculated by non compartmental analysis of the concentration-time profiles using WinNonLin software (Pharsight, Mountain View, Calif.). Apparent elimination half-life (t1/2) values were calculated as ln(2)/k. Area under the concentration-time curve (AUC) values were estimated using the linear trapezoidal method. AUClast values were calculated from the dosing time to the last measurable concentration. AUCinf values were calculated as the sum of the corresponding AUClast and the ratio of the last detectable concentration divided by k. Plasma clearance (Cl) is calculated from Dose/AUCinf. Volume of distribution at steady state (Vss) is calculated from Mean Residence Timeinf×Clss. Maximum concentration (Cmax) and time to Cmax (Tmax) was recorded as observed. The blood/plasma partitioning ratio was calculated at each experimental time point.

[8] = target: T4, purified HbS (Homo sapiens, UniProt P68871+P69905, E7V); experiment: HbS polymerization assay; type: biochemical; conditions: 75 μM compound; 50 μM HbS
T4 construct: HbS is purified by the CRO VIRUSYS, from blood obtained from homozygous sickle cell patients; tissue VIRUSYS (CRO that did the purification); host or cells: blood of homozygous sickle cell patients
Procedure: Polymerization assays are carried out in vitro using purified HbS exchanged into 1.8 M potassium phosphate buffer at pH 7.4. Using a slightly modified protocol (Antonini and Brunori, 1971). HbS is purified by the CRO VIRUSYS, from blood obtained from homozygous sickle cell patients through the Hemoglobinopathy Center at Children's Hospital Oakland Research Institute (CHORI) with Institutional Review Board approval. Compounds are prepared in 100% DMSO and a desired amount is added to 50 μM of purified HbS at a final DMSO concentration of 0.3%. Final potassium phosphate concentration is adjusted to 1.8 M using a combination of 2.5 M potassium phosphate stock solution and water at pH 7.4. The reaction mixture is incubated for an hour at 37° C. and then transferred into a 24-well plate for deoxygenation in a glove box containing 99.5% nitrogen and 0.5% oxygen. The 24-well plate is not covered and incubated at 4° C. on a plate cooler inside the glove box for one and a half hours. Fifty μl of the reaction mixture is transferred into a 96-well plate and the absorbance at 700 nm is measured every minute for one hour at 37° C. in a plate reader located inside the glove box. A plot of the absorbance against time is fitted using a Boltzman sigmoidal fit and the delay time (from zero to time at half Vmax) is measured. To compare and rank compounds, delay times are expressed as percent delay (% DT), which is defined as the difference in delay times for HbS/compound and HbS alone multiplied by 100 and divided by the delay time for HbS alone.
The ability of 5-HMF and compound 12 to delay HbS polymerization was evaluated as described in Example 2, above. Purified HbS (50 μM) was pre-incubated with 25 μM, 50 μM, or 100 μM of 5-HMF or compound 12, then passively de-oxygenated at 4° C. in 1.8 M potassium phosphate. Polymerization was induced via temperature jump from 4° C. to 37° C. Polymerization was quantified based on turbidity of the HbS solution under continued hypoxia.

[9] = read-out: Blood/plasma (Ratio of exposure AUCINF)
[10] = read-out: Blood/plasma (Ratio of peak concentration)

| SMILES | R-T delta R ([6]; 9 μM compound) | R-T delta R (class) ([6]; 9 μM compound) | R-T delta R ([6]; 10 μM compound) | R-T delta R (class) ([6]; 10 μM compound) | level of compound in blood versus plasma, overall exposure [7] [fold] | relative proportion in blood (as compared to plasma) at peak concentration (Cmax) [7] [fold] | Vd [7] [L/kg] | bioavailability [7] [%] | clearance [7] [mL/min/kg] | blood plasma ratio [7, 9] | blood plasma ratio [7, 10] | Reverse Hemox delta p50% (class) [4] | Reverse Hemox delta p50% [4] [%] | Polymerization % DT (class) [8] | Polymerization % DT (percent delay) [8] [%] | other results |
| --- | --- | --- | --- | --- | --- | --- | --- | --- | --- | --- | --- | --- | --- | --- | --- | --- |
| COc1cc(C=O)c(OCc2cccnc2-c2ccnn2C(C)C)cn1 [Compound 9, 2-methoxy-5-[[2-(2-propan-2-ylpyrazol-3-yl)pyridin-3-yl]methoxy]pyridine-4-carbaldehyde] | – | – | – | – | – | – | – | – | – | – | – | – | – | – | – | Hb in ODA (Δoxy state) [1]: 6; potency at increasing the oxygen affinity of HbS compared with 5-HMF ([2]; 96-well ODA): more potent at increasing the oxygen affinity of HbS than 5-hydroxy furfural; Hb in ODA (Δoxy state) ([2]; [Hb] 3 μM, [cmp] 3 μM): 23; Washed RBC OEC (delta p50%) [3]: 69%; Whole Blood OEC (delta p50%) ([4]; [cmp] 1 mM): 63%; Whole Blood OEC (delta p50%) ([4]; [cmp] 3 mM): >80%; p50 ([4]; whole blood from sickle cell disease patients, control blood p50 30 mm Hg): 11 mm Hg; Viscosity (ΔcP) ([5]; [cmp] 1.6 mM): 2.3 cP; Viscosity (ΔcP) ([5]; [cmp] 8 mM): >2.4 cP |
| COc1cc(C=O)c(OCc2cccnc2-c2ccccc2C)cn1 [Compound 23, 2-methoxy-5-[[2-(2-methylphenyl)pyridin-3-yl]methoxy] pyridine-4-carbaldehyde] | 37.15 | ++ (a delta R of between 30 and 50) | 51.55 | +++ (a delta R of 50 or greater) | 1 | 3 | 3.15 | 1.8 | 13.7 | 4 | 1 | +++ (a delta p50% of 50 or greater) | 72.45 | †† (activity >80% but ≦120%) | 98.19 | – |
| COc1cc(C=O)c(OCc2cccnc2-c2ccnn2CC(F)F)cn1 [Compound 22, 5-[[2-[2-(2,2-difluoroethyl)pyrazol-3-yl]pyridin-3-yl]methoxy]-2-methoxypyridine-4-carbaldehyde] | 31.02 | ++ (a delta R of between 30 and 50) | 36.25 | ++ (a delta R of between 30 and 50) | 5 | 5 | 3.1 | 6.6 | 9 | 33 | 5 | +++ (a delta p50% of 50 or greater) | 68.69 | †† (activity >80% but ≦120%) | 90.22 | – |
